Measurements published in article PMC11672562, “Synthesis and Antibacterial Activity of New 6″-Modified Tobramycin Derivatives” (Antibiotics, 2024).
Converted amounts (≈) assume the structure as drawn.

How the values were obtained:
S. aureus ATCC 29213 = assay: MIC, broth microdilution, S. aureus ATCC 29213; format: cell-based; details: Staphylococcus aureus, ATCC29213, Table 1, read-out: MIC
Method: (§1) The microbial strains used in this study were obtained from the collection of the Gause Institute of New Antibiotics. […] Storage was carried out in accordance with CLSI guidelines. Prior to experimentation, the bacterial strains were revived from cryopreservation by inoculating them onto trypticase soy agar (Becton, Dickinson, France) and incubating at (36 ± 1) °C for 16–24 h. Individual morphologically homogeneous colonies were then suspended in sterile physiological saline, and the turbidity of the suspension was adjusted to 0.5 McFarland units using a DEN-1 spectrophotometer (Biosan, Riga, Latvia), which corresponds to a concentration of 1.5 × 10^8 CFU/mL.
(§2) The samples were dissolved in sterile distilled water or dimethyl sulfoxide (DMSO), depending on the physicochemical properties of the compounds under investigation, to a concentration of 10,000 µg/mL.
(§3) Activity was evaluated by determining the minimum inhibitory concentration (MIC) values using the microdilution method in Mueller–Hinton Broth (Beckton and Dickinson, Le Pont-de-Claix, France), in accordance with the standard procedure for assessing the antimicrobial susceptibility of microorganisms.
(§4) The analysis was conducted in 96-well microtiter plates (Medpolymer, Saint Petersburg, Russia). The bacterial inoculum was introduced within 15 min of preparation. […] Microbial growth in the presence of the tested compounds was compared to the growth control (without exposure to the test samples). The MIC was defined as the lowest concentration at which visible microbial growth was inhibited.
(§5) The MIC values of the reference strains were required to fall within the acceptable ranges specified in [30], provided that standard assay conditions were maintained.

[1] = test system: E. coli JW5503 kanS EF-G P610T; assay: MIC in LB medium, aminoglycoside-resistant mutant EF-G P610T; format: cell-based; details: Escherichia coli, 18 h
Method: (§6) The determination of the minimum inhibitory concentration (MIC) was performed on three strains from the working collection of MSU: E. coli JW5503 [34], which lacked a kanamycin resistance cassette removed as per the method outlined in [39], and two strains derived from this strain through in vivo selection with kanamycin. The latter strains harbored P610T and P610L substitutions in the fusA gene. For the MIC determination, 100 μL (rows 2–11) and 200 μL (row 1) of LB liquid medium containing a 1:1000 dilution of overnight culture was added to each well of a 96-well transparent plate. Subsequently, 2 μL of a 50 μg/mL antibiotic solution was introduced into the first row, and serial two-fold dilutions were performed across each horizontal row, decreasing the antibiotic concentration incrementally. The final two rows were designated as controls: row 12 contained LB medium without cells or antibiotics, and row 11 contained cells without antibiotics. Following 18 h of incubation at 37 °C with constant agitation, the optical density at 590 nm (A590) was measured using a Victor X5 2030 spectrofluorometer (PerkinElmer, Waltham, MA, USA). The MIC was defined as the antibiotic concentration in the first well where no cell growth occurred. Each experiment was conducted in triplicate for all tested antibiotics.

E. coli JW5503 kanS = assay: MIC in LB medium, E. coli JW5503 kanS; format: cell-based; details: Escherichia coli, JW5503KANS, 18 h
Method: as §6

MTT cytotoxicity assay = format: cell-based; details: human, MTT test, HEK293T cells
Method: An MTT assay was conducted to assess the cytotoxicity of compounds on HEK293T cell lines. Cell line HEK293T was kindly provided by Dr. E. Knyazhanskaya. A total of 2500 cells per well were seeded into 96-well plates containing 100 μL of DMEM/F12 medium (Paneco LLC, Moscow, Russia) and incubated at 37 °C with 5% CO2 for 24 h prior to treatment. Dilutions of the test compounds 4a, 4b, 6a, and 6b, prepared in deionized sterile water, were added in 11 μL aliquots to achieve final concentrations ranging from 8.75 to 140 μg/mL (five dilutions per compound) in triplicate. The cells were incubated with the compounds for 72 h, after which 0.5 mg/mL of MTT reagent (Paneco LLC, Russia) was added. Following a 1.5 h incubation, the medium was removed, and 120 μL of DMSO was added to dissolve the blue formazan derivative formed by metabolically active cells. The absorbance at 565 nm was measured using a plate reader, and the data were normalized to untreated control cells. The half-maximal inhibitory concentration (IC50) was calculated using GraphPad Prism 5 software (GraphPad Software, Inc., San Diego, CA, USA).

[2] = test system: resistant clinical isolates of P. aeruginosa; assay: MIC against resistant clinical isolates of P. aeruginosa; format: cell-based; details: for MIC: Pseudomonas aeruginosa
Method: as §1, §2, §3, §4

M. smegmatis ATCC 607 = assay: MIC, broth microdilution, M. smegmatis ATCC 607; format: cell-based; details: Mycolicibacterium smegmatis, ATCC607, Table 1, read-out: MIC
Method: as §1, §2, §3, §4

P. aeruginosa ATCC 27853 = assay: MIC, broth microdilution, P. aeruginosa ATCC 27853; format: cell-based; details: for MIC: Pseudomonas aeruginosa, ATCC27853, P. aeruginosa ATCC 27853, Table 1, read-out: MIC
Method: The microbial strains used in this study were obtained from the collection of the Gause Institute of New Antibiotics. […] Storage was carried out in accordance with CLSI guidelines.
as §3, §4, §5

E. coli JW5503 = assay: MIC, broth microdilution, E. coli JW5503; format: cell-based; details: Escherichia coli, JW5503
Method: as §1, §2, §3, §4

E. coli ATCC 25922 = assay: MIC, broth microdilution, E. coli ATCC 25922; format: cell-based; details: for MIC: Escherichia coli, ATCC25922, Table 1, read-out: MIC
Method: as §1, §2, §3, §4, §5

[3] = test system: E. coli S30 Extract System, firefly luciferase synthesis; assay: Cell-free translation inhibition assay (firefly luciferase synthesis); format: biochemical; details: final concentration of 2 μM; water = 100
Method: The inhibitory effects of the tested compounds on in vitro firefly luciferase synthesis were evaluated using the E. coli S30 Extract System for Linear Templates (Promega, Madison, WI, USA), as described previously. Briefly, reaction mixtures with a total volume of 5 μL were prepared, containing 0.1 mM of a mixture of all canonical amino acids, 4 U of RiboLock RNase Inhibitor (Thermo Fisher Scientific, Waltham, MA, USA), and 2 μM of the tested compounds. After pre-incubation at room temperature for 5 min, 100 ng of in vitro-transcribed firefly luciferase mRNA was added. The mixtures were then incubated at 37 °C for 20 min. After incubation, each reaction was supplemented with 5 μL of Bright-Glo™ reagent (Promega, Madison, WI, USA), and chemiluminescence was measured using a VICTOR X5 Multilabel Plate Reader (PerkinElmer, Waltham, MA, USA). The luminescence values were normalized to the negative control (water), which was assigned 100% activity.

[4] = P. aeruginosa strain, Table 2 column 3, head prints 27853
[5] = P. aeruginosa strain, Table 2 column 4, head prints 27853
[6] = P. aeruginosa strain, Table 2 column 5, head prints 27853
[7] = P. aeruginosa strain, Table 2 column 6, head prints 27853
[8] = P. aeruginosa strain, Table 2 column 7, head prints 27853
[9] = multidrug-resistant clinical isolates P. aeruginosa 21653 and P. aeruginosa 21571

Row | SMILES | MIC (S. aureus ATCC 29213) | MIC [1] | MIC (E. coli JW5503 kanS) | IC50 at 72 h (MTT cytotoxicity assay) | MIC [2, 4] | MIC [2, 5] | MIC [2, 6] | MIC [2, 7] | MIC [2, 8] | MIC [2, 9] | MIC (M. smegmatis ATCC 607) | MIC (P. aeruginosa ATCC 27853) | MIC (E. coli JW5503) | MIC (E. coli ATCC 25922) | % control signal (relative maximal rate of firefly luciferase accumulation in vitro) [3] | resistance index ([2]; resistant clinical isolates of P. aeruginosa strains) | MIC of control antibiotic (P. aeruginosa ATCC 27853; P. aeruginosa ATCC 27853, quality control, must fall in acceptable ranges of [30]) | MIC of control antibiotic (E. coli ATCC 25922; quality control, must fall in acceptable ranges of [30])
1 | NCCNC[C@H]1O[C@H](O[C@@H]2[C@@H](O)[C@H](O[C@H]3O[C@H](CN)[C@@H](O)C[C@H]3N)[C@@H](N)C[C@H]2N)[C@H](O)[C@@H](N)[C@@H]1O [Compound 4a, 6″-(2-Aminoethyamino)-6″-deoxytobramycin acetate] | 0.125 µg/mL | 40 µg/mL | 10 µg/mL | > 140 µg/mL | 16 µg/mL | 32 µg/mL | > 32 µg/mL | > 32 µg/mL | 32 µg/mL | 16 to 32 µg/mL | 0.125 µg/mL | 1 µg/mL | 2 µg/mL | 0.5 µg/mL | 0.02% | – | – | –
2 | NCCCNC[C@H]1O[C@H](O[C@@H]2[C@@H](O)[C@H](O[C@H]3O[C@H](CN)[C@@H](O)C[C@H]3N)[C@@H](N)C[C@H]2N)[C@H](O)[C@@H](N)[C@@H]1O [Compound 4b, 6″-(3-Aminopropyl-1-amino)-6″-deoxytobramycin acetate] | 0.125 µg/mL | 80 µg/mL | 20 µg/mL | > 140 µg/mL | 32 µg/mL | 32 µg/mL | > 32 µg/mL | > 32 µg/mL | > 32 µg/mL | – | 0.125 µg/mL | 8 µg/mL | 8 µg/mL | 1 µg/mL | 7% | – | – | –
3 | N=C(N)NCCNC[C@H]1O[C@H](O[C@@H]2[C@@H](O)[C@H](O[C@H]3O[C@H](CN)[C@@H](O)C[C@H]3N)[C@@H](N)C[C@H]2N)[C@H](O)[C@@H](N)[C@@H]1O [Compound 6a, 6″-(2-Guanidinoethylamino)-6″-deoxytobramycin acetate] | 0.125 µg/mL | 40 µg/mL | 10 µg/mL | > 140 µg/mL | 16 µg/mL | 16 µg/mL | > 32 µg/mL | 32 µg/mL | 32 µg/mL | 16 to 32 µg/mL | 0.125 µg/mL | 1 µg/mL | 4 µg/mL | 1 µg/mL | 0.4% | – | – | –
4 | N=C(N)NCCCNC[C@H]1O[C@H](O[C@@H]2[C@@H](O)[C@H](O[C@H]3O[C@H](CN)[C@@H](O)C[C@H]3N)[C@@H](N)C[C@H]2N)[C@H](O)[C@@H](N)[C@@H]1O [Compound 6b, 6″-(3-Guanidinopropyl-1-amino)-6″-deoxytobramycin acetate] | 0.5 µg/mL | 80 µg/mL | 40 µg/mL | > 140 µg/mL | 16 µg/mL | 32 µg/mL | > 32 µg/mL | > 32 µg/mL | > 32 µg/mL | – | 0.25 µg/mL | 2 µg/mL | 8 µg/mL | 2 µg/mL | 21% | – | – | –
5 | NC[C@H]1O[C@H](O[C@H]2[C@H](O)[C@@H](O[C@H]3O[C@H](CO)[C@@H](O)[C@H](N)[C@H]3O)[C@H](N)C[C@@H]2N)[C@H](N)C[C@@H]1O [Tobramycin, tobramycin] | 0.06 µg/mL (≈ 0.128 µM) | 20 µg/mL (≈ 42.8 µM) | 5 µg/mL (≈ 10.7 µM) | 58 ± 3 µg/mL (≈ 124 µM) | > 128 µg/mL | > 128 µg/mL | > 128 µg/mL | > 32 µg/mL | > 32 µg/mL | – | 0.06 µg/mL (≈ 0.128 µM) | 0.5 µg/mL (≈ 1.07 µM) | 1 µg/mL (≈ 2.14 µM) | 0.25 µg/mL (≈ 0.535 µM) | 0.01% | > 256 | 0.25 to 1 µg/mL | 0.25 to 1 µg/mL
